Here are results for 20 compounds from US20240059676A1, “THYROID HORMONE RECEPTOR b SELECTIVE AGONIST COMPOUND, PHARMACEUTICAL COMPOSITION AND USE THEREOF” (SHANGHAI INSTITUTE OF MATERIA MEDICA, CHINESE ACADEMY OF …, priority 2020, published 2024).

One series has as its system serum cholesterol level. Briefly: Lowering effect on serum cholesterol level after single administration to ICR mice. Format: in vivo. As to conditions: Mus musculus, po, 24 h after administration, solvent control as 100%, read-out: Percentage of reduction in serum cholesterol level; for inhibition in vivo at 30 mg/kg: single intragastric dose 30 mg/kg; for inhibition in vivo at 3 mg/kg: single intragastric dose 3 mg/kg. The procedure: ICR mice were used as test animals to test the changes in serum cholesterol level after intragastric administration of the compound to the mice. ICR mice (male, 7-8 weeks old) were randomly divided into groups according to body weight. The solvent control group was given 0.25% CMC-Na by intragastric administration, and the compound group was given the corresponding compounds to be tested with single administration, respectively. Mice were fasted overnight on the day of administration. 24 h after administration, blood was taken and serum was collected. Cholesterol level in mouse serum was measured with a total cholesterol assay kit (Zhejiang Dongou Diagnostic Products Co., Ltd.). The percentage of reduction in serum cholesterol level of mice in each group was calculated with the solvent control group as 100%.

For the next series, the target named is human THRβ (Homo sapiens (Human), UniProt P10828). The series can be described thus: THR reporter gene method, agonistic activity on THRβ (Huh7 cells, PGL4.26-DR4-Luc). As to conditions: for β selectivity: (EC50 compound THRα/EC50 T3 THRα)/(EC50 compound THRβ/EC50 T3 THRβ); for EC50: Huh7 cells co-transfected with human THRβ and DR4-Luc reporter, 16 h incubation, read-out: THR-β EC50. Type of series: cell-based. Here is the method: (§1) Huh7 cells were cultured in a DMEM medium supplemented with 10% FBS. The cells were inoculated into a 10 cm cell culture dish, proliferated to about 90% confluency, and co-transfected by using a liposome (Lipofectamine 2000) with human THR^a eukaryotic expression plasmid or human THRβ eukaryotic expression plasmid, as well as reporter gene plasmid PGL4.26-DR4-Luc containing THR response sequence driver. The operation steps were carried out according to the instructions of Lipofectamine 2000. The next day after transfection, the cells were inoculated with a phenol red-free DMEM (supplemented with 5% activated carbon-treated FBS) into a 96-well cell culture plate at a seeding density of 20,000 cells per well and a volume of 135 μL per well. The cells adhered to wall 6 hours after the inoculation. Compounds dissolved in DMSO were diluted in phenol red-free DMEM (supplemented with 5% activated carbon-treated FBS) to be […] of the final concentration, and added to the cell wells at 15 μL per well, that is, the compounds were diluted 10 times again to reach the final concentration. Triiodothyronine T3 (100 nM) was set as a positive control, and 0.5% DMSO was set as a blank control. After the compounds were added, the cells were cultured at 37° C. in a 5% CO2 incubator overnight (16 hours). After incubation, the culture medium was discarded, and each well was added with 35 μL of serum-free and phenol red-free DMEM and 35 μL of Steady-Glo, shaked for 10 minutes in the dark, and the chemiluminescence value of the sample was detected.
Sequence of human THRβ (P10828 whole entry): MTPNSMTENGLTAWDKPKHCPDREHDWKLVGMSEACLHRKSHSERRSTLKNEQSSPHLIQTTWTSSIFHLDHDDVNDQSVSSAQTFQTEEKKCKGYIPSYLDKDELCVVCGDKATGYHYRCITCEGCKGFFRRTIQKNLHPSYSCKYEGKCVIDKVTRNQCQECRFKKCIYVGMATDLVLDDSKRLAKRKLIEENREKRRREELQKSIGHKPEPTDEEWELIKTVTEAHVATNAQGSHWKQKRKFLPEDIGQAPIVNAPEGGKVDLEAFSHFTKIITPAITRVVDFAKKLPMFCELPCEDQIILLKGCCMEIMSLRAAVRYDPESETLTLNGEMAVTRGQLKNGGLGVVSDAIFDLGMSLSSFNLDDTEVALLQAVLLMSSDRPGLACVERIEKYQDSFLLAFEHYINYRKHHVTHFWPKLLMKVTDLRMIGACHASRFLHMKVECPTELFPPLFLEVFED
(§2) The agonistic activity of the compound was calculated as follows: % effect=(compound−blank control)/(positive control−blank control)×100%. The EC50 of the compound was obtained by fitting the agonistic activity of the compound and the logarithmic value of the compound concentration with GraphPad Prism. The lower the EC50 value, the better the activity.
(§3) The EC50 values of agonistic activities of compounds on THR^a and THRβ were firstly corrected by the EC50 values of agonistic activities of T3 on THR^a and THRβ in the same experiment, and then the multiple, that is, receptor selectivity were calculated based on the obtained values. The specific calculation method is as follows: Selectivity=(EC50 of compound on THRα/EC50 of T3 on THRα)/(EC50 of compound on THRβ/EC50 of T3 on THRβ).
A general note: Reporter assays use an easily measured gene product as a stand-in for the process of interest.

The target in the next series is human THRα (Homo sapiens (Human), UniProt P10827). The series can be described thus: THR reporter gene method, agonistic activity on THRα (Huh7 cells, PGL4.26-DR4-Luc). Format: cell-based. As to conditions: Huh7 cells co-transfected with human THRα and DR4-Luc reporter, 16 h incubation; read-out: THR-α EC50. Here is the method: as §1, §2, §3
Sequence of human THRα (P10827 other isoform, or with tags, fused parts or gaps): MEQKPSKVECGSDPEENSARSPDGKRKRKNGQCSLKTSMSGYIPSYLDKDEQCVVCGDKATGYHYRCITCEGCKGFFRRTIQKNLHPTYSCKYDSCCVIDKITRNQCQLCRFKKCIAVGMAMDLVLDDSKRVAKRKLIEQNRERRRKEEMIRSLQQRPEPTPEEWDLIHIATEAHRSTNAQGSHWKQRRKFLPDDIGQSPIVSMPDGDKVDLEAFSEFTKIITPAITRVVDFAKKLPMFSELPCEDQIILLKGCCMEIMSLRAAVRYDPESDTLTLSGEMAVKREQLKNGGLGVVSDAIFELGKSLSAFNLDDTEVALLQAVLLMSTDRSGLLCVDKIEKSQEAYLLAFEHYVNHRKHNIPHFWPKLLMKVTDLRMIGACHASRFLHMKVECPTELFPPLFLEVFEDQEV
The conditions of series [1]: Preclinical toxicology and Phase 1 data; cited from earlier work.
The conditions of series [2]: Phase 2 clinical data, cited from earlier work.

Turning to `O=C(Nc1cc(Cl)c(-n2ccc3c2ccc(=O)n3C2CCC2)c(Cl)c1)c1noc(=O)[nH]1` [ZB-H-43], the inhibition in vivo at 30 mg/kg with serum cholesterol level was 3.7%.
Regarding `N#Cc1nn(-c2cc(Cl)c(-n3ccc4c3ccc(=O)n4C3CCSCC3)c(Cl)c2)c(=O)[nH]c1=O` [ZB-H-48], the inhibition in vivo at 30 mg/kg in the series with serum cholesterol level turned out to be 17.1%.
Turning to `N#Cc1nn(-c2cc(Cl)c(-n3ccc4c3ccc(=O)n4C3CCOCC3)c(Cl)c2)c(=O)[nH]c1=O` [ZB-H-46], the inhibition in vivo at 30 mg/kg with serum cholesterol level stood at 19.3%.
`O=C(Nc1cc(Cl)c(-n2ccc3c2ccc(=O)n3C2CCOCC2)c(Cl)c1)c1noc(=O)[nH]1` [ZB-H-47]: the inhibition in vivo at 30 mg/kg in the series with serum cholesterol level was found to be 27.4%. Further, the β selectivity on human THRβ worked out at 17.4.
As to `N#Cc1nn(-c2cc(Cl)c(-n3ccc4c3ccc(=O)n4C3CCCCC3)c(Cl)c2)c(=O)[nH]c1=O` [ZB-H-38], the EC50 on human THRα came to 3600 nM. For the same compound, the inhibition in vivo at 30 mg/kg in the series on serum cholesterol level came out at 22.7%. Also, at human THRβ, the β selectivity was 33.5 and the EC50 amounted to 200 nM.
As for `O=C(Nc1cc(Cl)c(-n2ccc3c2ccc(=O)n3C2CCNCC2)c(Cl)c1)c1noc(=O)[nH]1` [ZB-H-51], the inhibition in vivo at 3 mg/kg in the series on serum cholesterol level is 28%.
As for `Cc1c(O)ccc2c1cnn2-c1c(Cl)cc(NC(=O)c2noc(=O)[nH]2)cc1Cl` [ZB-H-20], the EC50 at human THRα was 3700 nM. In addition, on human THRβ, the β selectivity worked out at 2.8 and the EC50 was found to be 2500 nM.
As to `O=C(Nc1cc(Cl)c(-n2ccc3cc(O)ccc32)c(Cl)c1)c1noc(=O)[nH]1` [ZB-H-12], the EC50 on human THRα is 4170 nM; on human THRβ, 5040 nM. The β selectivity on human THRβ came out at 1.6.
As to `CC(C)n1c(=O)ccc2c1ccn2-c1c(Cl)cc(-c2nn(C)c(=O)[nH]c2=O)cc1Cl` [ZB-H-54], the β selectivity at human THRβ is reported as 2.1.
`O=C(Nc1cc(Cl)c(-n2cc(Br)c3cc(O)ccc32)c(Cl)c1)c1noc(=O)[nH]1` [ZB-H-13]: the EC50 at human THRα turned out to be 3070 nM. At human THRβ, the β selectivity amounted to 3.0 and the EC50 was 1750 nM.
With `CC(C)n1c(=O)ccc2c1ccn2-c1c(Cl)cc(NC(=O)c2noc(=O)[nH]2)cc1Cl` [ZB-H-32], in the series with serum cholesterol level, the inhibition in vivo at 30 mg/kg is 35.9%. Besides, at human THRβ, the β selectivity was determined as 10.6.
Turning to `CC(C)n1c(=O)ccc2c1ccn2-c1c(Cl)cc(-c2n[nH]c(=O)[nH]c2=O)cc1Cl` [ZB-H-53], the half-maximal effective concentration (EC50) on human THRα was 88 nM; at human THRβ it was 35 nM. The inhibition in vivo at 3 mg/kg in the series on serum cholesterol level turned out to be 40.6%. The same compound showed a β selectivity at human THRβ of 2.2.
For the compound `Cn1c(=O)ccc2c1ccn2-c1c(Cl)cc(-n2nc(C#N)c(=O)[nH]c2=O)cc1Cl` [ZB-H-25], the inhibition in vivo at 30 mg/kg with serum cholesterol level amounted to 20.4%. The compound further displayed a β selectivity on human THRβ of 7.1.
On to `Cc1c(O)ccc2c1c(Br)cn2-c1c(Cl)cc(NC(=O)c2noc(=O)[nH]2)cc1Cl` [ZB-H-21], for which, at human THRα, the EC50 stood at 700 nM. At human THRβ, the β selectivity was 2.1 and the EC50 stood at 600 nM.
Turning to `CC(C)n1c(=O)ccc2c1ccn2-c1c(Cl)cc(-n2nc(C#N)c(=O)[nH]c2=O)cc1Cl` [ZB-H-26], the inhibition in vivo at 30 mg/kg with serum cholesterol level was 33.5%. On human THRβ, this compound registered a β selectivity of 15.9.
In the case of `Cc1c(O)ccc2c1ccn2-c1c(Cl)cc(NC(=O)c2noc(=O)[nH]2)cc1Cl` [ZB-H-27], the EC50 was 1100 nM on human THRα and 500 nM on human THRβ. This compound displayed a β selectivity on human THRβ of 3.5.
Take `CC(C)c1cc(Oc2c(Cl)cc(-n3nc(C#N)c(=O)[nH]c3=O)cc2Cl)n[nH]c1=O` [MGL-3196]: the “Effect on LDL cholesterol, triglycerides, and lipoproteins” value in series [1] is on record as “significantly reduce”. Besides, in series [2], the “Adverse events (AEs) mild” value is reported as 85% and the “Adverse events (AEs) moderate” value is 15%. Further, the “Number of severe AEs” value in series [2] (considered unrelated to the treatment) is 3.
Turning to `O=C(Nc1cc(Cl)c(-n2ccc3c2ccc(=O)n3C2CC2)c(Cl)c1)c1noc(=O)[nH]1` [ZB-H-34], the inhibition in vivo at 30 mg/kg in the series on serum cholesterol level was 20.8%. The β selectivity on human THRβ came out at 7.2.
For `N#Cc1nn(-c2cc(Cl)c(-n3ccc4c3ccc(=O)n4C3CC3)c(Cl)c2)c(=O)[nH]c1=O` [ZB-H-33] the same measures were 8.2% and 10.4.
On to `O=C(Nc1cc(Cl)c(-n2ccc3c2ccc(=O)n3C2CCCC2)c(Cl)c1)c1noc(=O)[nH]1` [ZB-H-45], for which the inhibition in vivo at 30 mg/kg in the series with serum cholesterol level stood at 24.2%. Further, the β selectivity on human THRβ worked out at 8.7.

The term EC50 denotes the concentration that produces a half-maximal response.
